From patent publication US11236102B2, “Oxabicycloheptane prodrugs” (Lixte Biotechnology, Inc., priority 2015, dated 2022)

How the values were obtained:
in vivo = assay: in vivo; parameters: species or system SD rats; conditions: rat, in vivo, iv, 1 mg/kg
Experimental: 105 was dissolved in 4% NaHCO3 in saline for IV administration. The detailed procedure of dosing solution preparation was presented in Appendix I.
Thirteen (13) animals were placed on the study. The animals in IV arm were free access to food and water. One extra animal was used for blank liver and plasma generation (5 mL per animal). The resulting blank liver and plasma was then applied to the development of bioanalytical method and sample bioanalysis for the entire study.
The IV injection was conducted via foot dorsal vein. Animals were free access to food and water before dose.
The animal is restrained manually. Approximately 150 μL of blood/time point is collected into sodium heparin tube via cardiac puncture for terminal bleeding (anesthetized under carbon dioxide). Blood sample will be put on ice and centrifuged to obtain plasma sample (2000 g, 5 min under 4° C.) within 10 minutes.
The animal will be euthanized with carbon dioxide inhalation. Open abdominal cavity with scissor to expose internal organs. Hold the carcass in an upright position and allow the organs to fall forward. Cut the connective tissues and remove the organs. Then the organs are rinsed with cold saline, dried on filtrate paper, placed into a screw-top tube and weighed, snap frozen by placing into dry-ice immediately.
Plasma and liver samples were stored at approximately −80° C. until analysis. The backup samples will be discarded after three weeks after in-life completion unless requested. The unused dosing solutions will be discarded within three weeks after completion of the study
Software: The PK parameters were determined by non-compartmental model of non-compartmental analysis tool, Pharsight Phoenix WinNonlin® 6.2 software.
Concentration data within 80%-120% of LLOQ was considered within normal instrumental variation and presented in the results. Terminal t1/2 calculation: Time points were automatic selected by “best fit” model for terminal half life estimation as the first option. Manual selection was applied when “best fit” could not well define the terminal phase.

[1] = Whole blood stability (half-life) and metabolite formation; type: in vitro ADME, rat, dog, monkey and human; conditions: cross species
Experimental: The stability (whole blood, liver S9, SGF, SIF, and PBS buffer) and MDCK-MDR1 monolayer permeability of LB100, LB-100 Carbonate and LB-100 POM were evaluated.
Samples were analyzed by LC-MS/MS using a SCIEX QTrap 5500 mass spectrometer coupled with an Agilent 1290 HPLC Infinity series, a CTC PAL chilled autosampler, all controlled by Analyst software. After separation on a C18 reverse phase HPLC column (Acquity UPLC HSS T3, 1.8, 2.1×50 mm) using an acetonitrile-water gradient system, peaks were analyzed by mass spectrometry (MS) using […] ionization in MRM mode.
Whole Blood Stability: Experimental Conditions Experimental Procedure: The stock solution was first diluted in acetonitrile at a concentration that is 100× of the desired final concentration. It was incubated in duplicate with whole blood at 37° C. At indicated times, an aliquot was removed from each experimental and control reaction and mixed with three volumes of ice-cold Stop Solution (methanol containing propranolol as internal standard). Stopped reactions were incubated at least ten minutes at −20° C. The samples were centrifuged to remove precipitated protein, and the supernatants were analyzed by LC-MS/MS to quantitate the remaining parent and the formation of metabolites.
Data were converted to % remaining by dividing by the time zero concentration value. Data were fit to a first-order decay model to determine half-life.

[2] = Oral absorption / oral bioavailability of 151 and 100; conditions: rat, in vivo

Row | Structure (SMILES) | AUC(0-last) in liver (in vivo) | AUC(0-∞) in liver (in vivo) | metabolite formation in whole blood half-life study [1] | bioavailability [2]
1 | O=C(O)C1C2CCC(O2)C1C(=O)O (stereo not shown) [Endothal, 7-oxabicyclo[2.2.1]heptane-2,3-dicarboxylic acid] | 3152 ng·h/g | 4896 ng·h/g |  | 
2 | COC(=O)C1C2CCC(O2)C1C(=O)N1CCN(C)CC1 (stereo not shown) [Compound 151] |  |  | No metabolites were detected | ~60%
